Source: PMC11590026, “Synthesis, enzyme inhibition, and docking studies of new schiff bases of disalicylic acid methylene-based derivatives as dual-target antibacterial agents” (Frontiers in Chemistry, 2024)
Values after ≈ are worked out from the molar mass of the structure shown. Like-named read-outs stand apart in the source and are kept apart here.

Tests used:
E. coli (ATCC BAA-196) = test: Antibacterial assay against multi-drug resistant strains (MIC/MBC); format: cell-based, Escherichia coli; conditions: Escherichia coli; for MBC: ATCCBAA196; for MIC: ATCCBAA196, read-out: MIC
B. subtilis = test: MIC/MBC assay, twofold serial dilution; format: cell-based, Bacillus subtilis; conditions: Bacillus subtilis; for MBC: read-out: MBC; for MIC: read-out: MIC
Description: (§1) The results of this in vitro assay test are consistent with the findings of the antimicrobial sensitivity test. […] It has lower antimicrobial activity than ciprofloxacin against all pathogens tested.
(§2) The MBC differs from the MIC. […]
(§3) 4.2.2. Minimum inhibitory concentration assay
(§4) In 96-well microtiter plates and […] of fresh bacterial culture of a single McFarland unit overnight, a double serial dilution of each compound […] in sterile standard saline were prepared to every single source well. Ciprofloxacin antibiotic (5 mg / mL - 1) and normal saline were included as standard reference in each assay. The plates were incubated at 37 0C overnight. As an indicator of bacterial growth, […] of p-iodonitrotetrazolium violet (INT) was added to each well and incubated at 37 0C for 30 […]
(§5) min. MIC values are recorded as the lowest concentration of the extract that completely inhibited bacterial growth that is clear well. The colorless tetrazolidium salt acts as an electron accepter and is reduced to a red colored formazan product by biological activity organisms. Where bacterial growth was inhibited, the solution in the well remained clear after incubation with INT. […]

S. aureus = test: MIC/MBC assay, twofold serial dilution; format: cell-based, Staphylococcus aureus; conditions: for MBC: read-out: MBC
Description: as §1, §2, §3, §4, §5

[1] = Cell viability assay (MTT); format: cell-based; conditions: human, MCF-10A cells (normal mammary gland epithelial cell line), 4-day incubation
Description: The vitality of the investigated compounds was assessed using the MCF-10A cell line, which is a normal human mammary gland epithelial cell line. Following a 4-day incubation period on MCF-10A cells with a concentration of 50 µM for each compound being studied, the viability of the cells was assessed using the MTT test ([Hisham et al., 2022]; [Mahmoud et al., 2022]).
4.2.3. Cell Viability assay
MTT assay was carried out to study the effect of compounds on mammary epithelial cells (MCF-10A). The medium in which cells were propagated contained Dulbecco's modified Eagle's medium (DMEM)/ Ham's F-12 medium (1:1) supplemented with epidermal growth factor (20 ng/mL), hydrocortisone (500 ng/mL), insulin (10 μg/mL), 2 mM glutamine and 10% fetal calf serum. After every 2-3 days, the cells were passaged using trypsin ethylenediamine tetra acetic acid (EDTA). The cells were seeded at a density of 10^4 cells mL-1 in flat-bottomed culture plates containing 96 wells each. After 24 h, medium was removed from the plates and the compounds in (in 0.1% DMSO) were added (in 200 μL medium to yield a final concentration of 0.1% v/v) to the wells of plates. A single compound was designated with four wells followed by incubation of plates for 96h at 37°C. After incubation, medium was removed completely from the plates followed by addition of MTT (0.4 mg/mL in medium) to each well and subsequent incubation of plates for 3h. MTT (along with the medium) was removed and DMSO (150μL) was added to each well of the culture plates, followed by vortexing and subsequent measurement of absorbance (at 540 nm) using microplate reader. The data are shown as percentage inhibition of proliferation in comparison with controls

C. albicans = test: Antifungal assay (MIC/MFC), twofold serial dilution; conditions: Candida albicans
[2] = system: S. aureus (ATCC 43300) (MRSA); test: Antibacterial assay against multi-drug resistant strains (MIC/MBC); format: cell-based, Staphylococcus aureus; conditions: Staphylococcus aureus, S. aureus ATCC 43300 (MRSA); for MBC: read-out: MBC; for MIC: read-out: MIC
[3] = system: P. aeruginosa (ATCC BAA-2111); test: as above; format: cell-based, Pseudomonas aeruginosa; conditions: Pseudomonas aeruginosa; for MBC: ATCCBAA2111; for MIC: ATCCBAA2111, read-out: MIC
Gram-positive bacteria = test: MBC assay, Gram-positive bacteria together; format: cell-based; conditions: Gram-positive bacteria (B. subtilis, S. aureus)
Description: The MBC differs from the MIC.

E. coli = test: MIC/MBC assay, twofold serial dilution; format: cell-based, Escherichia coli; conditions: Escherichia coli; for MBC: read-out: MBC; for MIC: read-out: MIC
Description: as §1, §2, §3, §4, §5

A. flavus = test: Antifungal assay (MIC/MFC), twofold serial dilution; conditions: for MIC: A. flavus
P. aeruginosa = test: MIC/MBC assay, twofold serial dilution; format: cell-based, Pseudomonas aeruginosa; conditions: Pseudomonas aeruginosa; for MBC: read-out: MBC; for MIC: read-out: MIC
Description: as §1, §2, §3, §4, §5

[4] = Staphylococcus aureus, read-out: MIC

Row | MIC (E. coli (ATCC BAA-196)) [µM] | MIC (B. subtilis) [µM] | MIC (S. aureus; [4]) [µM] | MIC (C. albicans) [µM] | MIC [2] [µM] | MIC [3] [µM] | MIC (E. coli) [µM] | MIC (A. flavus) [µM] | MIC (A. flavus; Aspergillus flavus) [µM] | SMILES | MBC (E. coli (ATCC BAA-196)) [µM] | MBC (B. subtilis) [µM] | MBC (S. aureus; Staphylococcus aureus) [µM] | viability at 96 h, 50 µM [1] [%] | MFC (C. albicans) [µM] | MBC [2] [µM] | MBC [3] [µM] | MBC (Gram-positive bacteria) [µM] | MBC (E. coli) [µM] | MFC (A. flavus; Aspergillus flavus) [µM] | MBC (P. aeruginosa) [µM] | other results
1 | 5.3 ± 0.2 (≈ 4.25 µg/mL) | 0.033 ± 0.002 (≈ 0.0264 µg/mL) | 0.029 (≈ 0.0232 µg/mL) | 21.3 ± 1 (≈ 17.1 µg/mL) | 4.7 ± 0.2 (≈ 3.77 µg/mL) | 6.85 ± 0.5 (≈ 5.49 µg/mL) | 0.066 ± 0.004 (≈ 0.0529 µg/mL) | 18.20 ± 1 (≈ 14.6 µg/mL) | 14.5 to 19.5 (≈ 11.6 to 15.6 µg/mL) | O=C1Nc2ccc(Br)cc2/C1=N/NC(=O)c1cc(Cc2cc(Cl)c(O)c(C(=O)N/N=C3\C(=O)Nc4ccc(Br)cc43)c2)cc(Cl)c1O [Compound 6c] | 8.2 ± 0.6 (≈ 6.57 µg/mL) | 0.051 ± 0.003 (≈ 0.0409 µg/mL) | 0.045 ± 0.002 (≈ 0.0361 µg/mL) | 91 | 44.8 ± 3 (≈ 35.9 µg/mL) | 7.1 ± 0.5 (≈ 5.69 µg/mL) | 9.2 ± 0.6 (≈ 7.37 µg/mL) | 0.028 to 0.058 (≈ 0.0224 to 0.0465 µg/mL) | 0.088 ± 0.006 (≈ 0.0705 µg/mL) | 35.9 ± 2 (≈ 28.8 µg/mL) | 0.085 ± 0.006 (≈ 0.0681 µg/mL) | MIC (S. aureus): 0.029 ± 0.002 µM (≈ 0.0232 µg/mL); MIC (P. aeruginosa): 0.065 ± 0.005 µM (≈ 0.0521 µg/mL)
2 | 6.25 ± 0.25 (≈ 4.4 µg/mL) | 0.037 ± 0.002 (≈ 0.026 µg/mL) | 0.035 ± 0.002 (≈ 0.0246 µg/mL) | 22.9 ± 1 (≈ 16.1 µg/mL) | 5.9 ± 0.2 (≈ 4.15 µg/mL) | 7.15 ± 0.5 (≈ 5.03 µg/mL) | 0.069 ± 0.004 (≈ 0.0485 µg/mL) | 19.50 ± 1 (≈ 13.7 µg/mL) | 14.5 to 19.5 (≈ 10.2 to 13.7 µg/mL) | COc1ccc2c(c1)/C(=N/NC(=O)c1cc(Cc3cc(Cl)c(O)c(C(=O)N/N=C4\C(=O)Nc5ccc(OC)cc54)c3)cc(Cl)c1O)C(=O)N2 [Compound 6e] | 9.3 ± 0.6 (≈ 6.54 µg/mL) | 0.058 ± 0.003 (≈ 0.0408 µg/mL) | 0.054 ± 0.003 (≈ 0.038 µg/mL) | 92 | 50.2 ± 3 (≈ 35.3 µg/mL) | 7.8 ± 0.5 (≈ 5.49 µg/mL) | 10.4 ± 0.7 (≈ 7.32 µg/mL) | 0.028 to 0.058 (≈ 0.0197 to 0.0408 µg/mL) | 0.095 ± 0.006 (≈ 0.0668 µg/mL) | 40.2 ± 3 (≈ 28.3 µg/mL) | 0.097 ± 0.006 (≈ 0.0682 µg/mL) | MIC (P. aeruginosa): 0.069 ± 0.005 µM (≈ 0.0485 µg/mL)
